Laboratory results: PubChem BioAssay (NCI)
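Briefly, cells in 96-well plates were exposed to five compound concentrations for 48 h, and endpoints were estimated by linear interpolation. Definition used: TGI = concentration required for complete inhibition of growth.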

Tests used:
Assay in all cases: inhibition of tumour cell growth, NCI panel, 48 h
OVCAR-8 ovarian = system: OVCAR-8 ovarian
NCI-H23 lung = system: NCI-H23 lung
SF-268 CNS = system: SF-268 CNS
M14 melanoma = system: M14 melanoma
786-0 renal = system: 786-0 renal
UO-31 renal = system: UO-31 renal
RXF 393 renal = system: RXF 393 renal
SK-MEL-28 melanoma = system: SK-MEL-28 melanoma
NCI-H226 lung = system: NCI-H226 lung
MDA-MB-231 breast = system: MDA-MB-231 breast
NCI-H522 lung = system: NCI-H522 lung
K-562 leukemia = system: K-562 leukemia
SK-MEL-5 melanoma = system: SK-MEL-5 melanoma
DU-145 prostate = system: DU-145 prostate
A549 NSCLC = system: A549 NSCLC
SNB-19 CNS = system: SNB-19 CNS
U251 CNS = system: U251 CNS
HOP-62 NSCLC = system: HOP-62 NSCLC
MCF7 breast = system: MCF7 breast
OVCAR-4 ovarian = system: OVCAR-4 ovarian
A498 renal = system: A498 renal
CAKI-1 renal = system: CAKI-1 renal
T-47D breast = system: T-47D breast
HOP-92 NSCLC = system: HOP-92 NSCLC
SF-539 CNS = system: SF-539 CNS
KM12 colon = system: KM12 colon
LOX IMVI melanoma = system: LOX IMVI melanoma
OVCAR-5 ovarian = system: OVCAR-5 ovarian
EKVX NSCLC = system: EKVX NSCLC
OVCAR-3 ovarian = system: OVCAR-3 ovarian
RPMI-8226 leukemia = system: RPMI-8226 leukemia
IGROV1 ovarian = system: IGROV1 ovarian
MDA-N = system: MDA-N
COLO 205 colon = system: COLO 205 colon
NCI/ADR-RES ovarian = system: NCI/ADR-RES ovarian
MALME-3M melanoma = system: MALME-3M melanoma
BT-549 breast = system: BT-549 breast
UACC-62 melanoma = system: UACC-62 melanoma
SK-MEL-2 melanoma = system: SK-MEL-2 melanoma
SN12C renal = system: SN12C renal
ACHN renal = system: ACHN renal
UACC-257 melanoma = system: UACC-257 melanoma
CCRF-CEM leukemia = system: CCRF-CEM leukemia
HS 578T breast = system: HS 578T breast
MDA-MB-435 = system: MDA-MB-435
HT29 colon = system: HT29 colon
SW-620 colon = system: SW-620 colon
TK-10 renal = system: TK-10 renal
HL-60(TB) leukemia = system: HL-60(TB) leukemia
HCT-116 colon = system: HCT-116 colon
PC-3 prostate = system: PC-3 prostate
MOLT-4 leukemia = system: MOLT-4 leukemia
HCT-15 colon = system: HCT-15 colon
SF-295 CNS = system: SF-295 CNS
HCC-2998 colon = system: HCC-2998 colon
SNB-75 CNS = system: SNB-75 CNS
NCI-H460 lung = system: NCI-H460 lung
SK-OV-3 ovarian = system: SK-OV-3 ovarian

CC1S/C(=N/c2nnc(-c3ccccc3)o2)NC1=O (configuration not stated)
TGI (OVCAR-8 ovarian): > 100 µM | TGI (NCI-H23 lung): > 100 µM | TGI (SF-268 CNS): > 100 µM | TGI (M14 melanoma): 56.5 µM | TGI (786-0 renal): 85.4 µM | TGI (UO-31 renal): > 100 µM | TGI (RXF 393 renal): > 100 µM | TGI (SK-MEL-28 melanoma): > 100 µM | TGI (NCI-H226 lung): > 100 µM | TGI (MDA-MB-231 breast): > 100 µM | TGI (NCI-H522 lung): > 100 µM | TGI (K-562 leukemia): > 100 µM | TGI (SK-MEL-5 melanoma): > 100 µM | TGI (DU-145 prostate): > 100 µM | TGI (A549 NSCLC): > 100 µM | TGI (SNB-19 CNS): > 100 µM | TGI (U251 CNS): > 100 µM | TGI (HOP-62 NSCLC): > 100 µM | TGI (MCF7 breast): > 100 µM | TGI (OVCAR-4 ovarian): > 100 µM | TGI (A498 renal): > 100 µM | TGI (CAKI-1 renal): > 100 µM | TGI (T-47D breast): > 100 µM | TGI (HOP-92 NSCLC): > 100 µM | TGI (SF-539 CNS): > 100 µM | TGI (KM12 colon): > 100 µM | TGI (LOX IMVI melanoma): > 100 µM | TGI (OVCAR-5 ovarian): > 100 µM | TGI (EKVX NSCLC): 85.2 µM | TGI (OVCAR-3 ovarian): 69.5 µM | TGI (RPMI-8226 leukemia): > 100 µM | TGI (IGROV1 ovarian): > 100 µM | TGI (MDA-N): > 100 µM | TGI (COLO 205 colon): > 100 µM | TGI (NCI/ADR-RES ovarian): > 100 µM | TGI (MALME-3M melanoma): > 100 µM | TGI (BT-549 breast): > 100 µM | TGI (UACC-62 melanoma): > 100 µM | TGI (SK-MEL-2 melanoma): > 100 µM | TGI (SN12C renal): > 100 µM | TGI (ACHN renal): > 100 µM | TGI (UACC-257 melanoma): > 100 µM | TGI (CCRF-CEM leukemia): > 100 µM | TGI (HS 578T breast): > 100 µM | TGI (MDA-MB-435): > 100 µM | TGI (HT29 colon): 69.8 µM | TGI (SW-620 colon): > 100 µM | TGI (TK-10 renal): > 100 µM | TGI (HL-60(TB) leukemia): > 100 µM | TGI (HCT-116 colon): 37.4 µM | TGI (PC-3 prostate): > 100 µM | TGI (MOLT-4 leukemia): > 100 µM | TGI (HCT-15 colon): > 100 µM | TGI (SF-295 CNS): > 100 µM

C=c1c(OC)c(OC)c(O)c2c1=c1cc([N+](=O)[O-])cc(OC)c1=N2
TGI (OVCAR-8 ovarian): > 100 µM | TGI (NCI-H23 lung): > 100 µM | TGI (SF-268 CNS): > 100 µM | TGI (M14 melanoma): > 100 µM | TGI (786-0 renal): > 100 µM | TGI (UO-31 renal): > 100 µM | TGI (RXF 393 renal): > 100 µM | TGI (SK-MEL-28 melanoma): > 100 µM | TGI (NCI-H226 lung): > 100 µM | TGI (MDA-MB-231 breast): > 100 µM | TGI (NCI-H522 lung): > 100 µM | TGI (K-562 leukemia): > 100 µM | TGI (SK-MEL-5 melanoma): > 100 µM | TGI (DU-145 prostate): > 100 µM | TGI (A549 NSCLC): > 100 µM | TGI (SNB-19 CNS): > 100 µM | TGI (U251 CNS): > 100 µM | TGI (HOP-62 NSCLC): > 100 µM | TGI (MCF7 breast): > 100 µM | TGI (OVCAR-4 ovarian): > 100 µM | TGI (A498 renal): > 100 µM | TGI (CAKI-1 renal): > 100 µM | TGI (T-47D breast): > 100 µM | TGI (HOP-92 NSCLC): > 100 µM | TGI (SF-539 CNS): > 100 µM | TGI (KM12 colon): > 100 µM | TGI (LOX IMVI melanoma): > 100 µM | TGI (OVCAR-5 ovarian): > 100 µM | TGI (EKVX NSCLC): > 100 µM | TGI (OVCAR-3 ovarian): > 100 µM | TGI (HCC-2998 colon): > 100 µM | TGI (RPMI-8226 leukemia): > 100 µM | TGI (SNB-75 CNS): > 100 µM | TGI (IGROV1 ovarian): > 100 µM | TGI (MDA-N): > 100 µM | TGI (COLO 205 colon): > 100 µM | TGI (NCI/ADR-RES ovarian): > 100 µM | TGI (MALME-3M melanoma): > 100 µM | TGI (BT-549 breast): > 100 µM | TGI (UACC-62 melanoma): > 100 µM | TGI (SK-MEL-2 melanoma): > 100 µM | TGI (NCI-H460 lung): > 100 µM | TGI (SK-OV-3 ovarian): > 100 µM | TGI (SN12C renal): > 100 µM | TGI (ACHN renal): > 100 µM | TGI (UACC-257 melanoma): > 100 µM | TGI (CCRF-CEM leukemia): > 100 µM | TGI (HS 578T breast): > 100 µM | TGI (MDA-MB-435): > 100 µM | TGI (HT29 colon): > 100 µM | TGI (SW-620 colon): > 100 µM | TGI (TK-10 renal): > 100 µM | TGI (HL-60(TB) leukemia): > 100 µM | TGI (HCT-116 colon): > 100 µM | TGI (PC-3 prostate): > 100 µM | TGI (MOLT-4 leukemia): > 100 µM | TGI (HCT-15 colon): > 100 µM | TGI (SF-295 CNS): > 100 µM
